Test results from patent US20130244999A1, “Substituted Heterocyclic Compounds” (Incyte Corporation, priority 2008, published 2013).

Target: T1, histamine H4 receptor (Homo sapiens, UniProt Q9H3N8)
T1 construct: expressed in transfected cells; host or cells: HEK293SFM cells (membrane preparation)
Assay: Inhibition of histamine H4 receptor (Table A1; H4 membrane binding assay)
Conditions: for IC50: histamine H4 receptor, "> a" = exceeds experiment limit
In short: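 Radioligand binding was measured by filtration through PEI-treated GF/B filters with scintillation counting, using 1000× unlabeled ligand to define nonspecific binding. Membranes were prepared from HEK293SFM cells recombinantly expressing human H4 in ice-cold 50 mM Tris-HCl, pH 7.5, plus protease inhibitors.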

| IC50 [nM] | inhibition at 1 µM [%] | SMILES |
| --- | --- | --- |
| 45 | – | CNC(=O)c1ccc(-c2ccc3c(c2)CN(c2cc(N4CCN(C)CC4)nc(N)n2)C(C)C3)cn1 (single isomer, unassigned) [Example 49A] |
| 22 | – | CC1Cc2ccc(-c3ccn(CC#N)n3)cc2CN1c1cc(N2CCN(C)CC2)nc(N)n1 (single isomer, unassigned) [Example 82A, (3-{2-[2-Amino-6-(4-methylpiperazin-1-yl)pyrimidin-4-yl]-3-methyl-1,2,3,4-tetrahydroisoquinolin-7-yl}-1H-pyrazol-1-yl)acetonitrile] |
| – | 66 | CN1CCN(c2cc(N3CCc4ccc(NC(=O)N5CCCCC5)cc4C3)nc(N)n2)CC1 [Example 35, N-{2-[2-Amino-6-(4-methylpiperazin-1-yl)pyrimidin-4-yl]-1,2,3,4-tetrahydroisoquinolin-7-yl}piperidine-1-carboxamide] |
| 113 | – | CN1CCN(c2cc(N3CCc4ccc(-c5ccc(C(=O)N[C@H]6CC[C@H](O)CC6)nc5)cc4C3)nc(N)n2)CC1 [Example 20, 5-{2-[2-Amino-6-(4-methylpiperazin-1-yl)pyrimidin-4-yl]-1,2,3,4-tetrahydroisoquinolin-7-yl}-N-(trans-4-hydroxycyclohexyl)pyridine-2-carboxamide] |
| 172 | – | CC1Cc2ccc(-c3cnn(CC4CCCO4)c3)cc2CN1c1cc(N2CCN(C)CC2)nc(N)n1 (single isomer, unassigned) [Example 99B, 4-(4-Methylpiperazin-1-yl)-6-[3-methyl-7-[1-(tetrahydrofuran-2-ylmethyl)-1H-pyrazol-4-yl]-3,4-dihydroisoquinolin-2(1H)-yl]pyrimidin-2-amine] |
| 49 | – | CC1Cc2ccc(-c3cc(C(=O)NC4CC4)n(C)c3)cc2CN1c1cc(N2CCN(C)CC2)nc(N)n1 (single isomer, unassigned) [Example 91A, 4-{2-[2-Amino-6-(4-methylpiperazin-1-yl)pyrimidin-4-yl]-3-methyl-1,2,3,4-tetrahydroisoquinolin-7-yl}-N-cyclopropyl-1-methyl-1H-pyrrole-2-carboxamide] |
| 260 | – | CN1CCN(c2cc(N3CCc4ccc(C(=O)N(C)Cc5cccc(F)c5)cc4C3)nc(N)n2)CC1 [Example 25, 2-[2-Amino-6-(4-methylpiperazin-1-yl)pyrimidin-4-yl]-N-(3-fluorobenzyl)-N-methyl-1,2,3,4-tetrahydroisoquinoline-7-carboxamide] |
| 57 | – | CC1Cc2ccc(-c3ccnc(C(=O)N4CC[C@H](F)C4)c3)cc2CN1c1cc(N2CCN(C)CC2)nc(N)n1 (single isomer, unassigned) [Example 66B] |
| 64 | – | CC1Cc2ccc(-c3ccnc(C(=O)N(C)C)c3)cc2CN1c1cc(N2CCN(C)CC2)nc(N)n1 (single isomer, unassigned) [Example 61B, 4-{2-[2-amino-6-(4-methylpiperazin-1-yl)pyrimidin-4-yl]-3-methyl-1,2,3,4-tetrahydroisoquinolin-7-yl}-N,N-dimethylpyridine-2-carboxamide] |
| 108 | – | CNC(=O)Cn1cc(-c2ccc3c(c2)CN(c2cc(N4CCN(C)CC4)nc(N)n2)C(C)C3)cn1 (centres unmarked) [Example 79, 2-(4-{2-[2-Amino-6-(4-methylpiperazin-1-yl)pyrimidin-4-yl]-3-methyl-1,2,3,4-tetrahydroisoquinolin-7-yl}-1H-pyrazol-1-yl)-N-methylacetamide] |
| 75 | – | CC1Cc2ccc(-c3ccc(C(=O)N[C@H](C)CO)nc3)cc2CN1c1cc(N2CCN(C)CC2)nc(N)n1 (single isomer, unassigned) [Example 51A] |
| 135 | – | CC1Cc2ccc(-c3cnc(C(=O)N4CC(O)C4)nc3)cc2CN1c1cc(N2CCN(C)CC2)nc(N)n1 (single isomer, unassigned) [Example 78, 1-[(5-{2-[2-Amino-6-(4-methylpiperazin-1-yl)pyrimidin-4-yl]-3-methyl-1,2,3,4-tetrahydroisoquinolin-7-yl}pyrimidin-2-yl)carbonyl]azetidin-3-ol] |
| – | 69 | CNC(=O)c1cc(-c2ccc3c(c2)CN(c2cc(N4CCN(C)CC4)nc(N)n2)C(C)C3)cn1C (single isomer, unassigned) [Example 87B, 4-{2-[2-Amino-6-(4-methylpiperazin-1-yl)pyrimidin-4-yl]-3-methyl-1,2,3,4-tetrahydroisoquinolin-7-yl}-N,1-dimethyl-1H-pyrrole-2-carboxamide] |
| 48 | – | CC1Cc2ccc(-c3cnc4[nH]cnc4c3)cc2CN1c1cc(N2CCN(C)CC2)nc(N)n1 (centres unmarked) [Example 135, 4-[7-(3H-Imidazo[4,5-b]pyridin-6-yl)-3-methyl-3,4-dihydroisoquinolin-2(1H)-yl]-6-(4-methylpiperazin-1-yl)pyrimidin-2-amine] |
| 119 | – | CC1Cc2ccc(-c3ccc(C(=O)N4CCC(N(C)C)C4)nc3)cc2CN1c1cc(N2CCN(C)CC2)nc(N)n1 (centres unmarked) [Example 57, 4-[7-(6-{[3-(Dimethylamino)pyrrolidin-1-yl]carbonyl}pyridin-3-yl)-3-methyl-3,4-dihydroisoquinolin-2(1H)-yl]-6-(4-methylpiperazin-1-yl)pyrimidin-2-amine] |
| 20 | – | CNC(=O)c1ccc(-c2ccc3c(c2)CN(c2cc(N4CCN(C)CC4)nc(N)n2)CC3)cn1 [Example 2, 5-{2-[2-Amino-6-(4-methylpiperazin-1-yl)pyrimidin-4-yl]-1,2,3,4-tetrahydroisaquinolin-7-yl}-N-methylpyridine-2-carboxamide] |
| 24 | – | CC1Cc2ccc(-c3cnn(C)c3)cc2CN1c1cc(N2CCNCC2)nc(N)n1 (centres unmarked) [Example 121, 4-[3-Methyl-7-(1-methyl-1H-pyrazol-4-yl)-3,4-dihydroisoquinolin-2 (1H)-yl]-6-piperazin-1-ylpyrimidin-2-amine] |
| 80 | – | CN1CCN(c2cc(N3CCc4ccc(-c5cnn(C)c5)cc4C3)nc(N)n2)CC1 [Example 4, 4-(4-Methylpiperazin-1-yl)-6-[7-(1-methyl-1H-pyrazol-4-yl)-3,4-dihydroisoquinolin-2(1H)-yl]pyrimidin-2-amine] |
| 102 | – | CCOc1ccc(Cn2cc(-c3ccc4c(c3)CN(c3cc(N5CCN(C)CC5)nc(N)n3)CC4)cn2)cn1 [Example 10, 4-[7-{1-[(6-Ethoxypyridin-3-yl)methyl]-1H-pyrazol-4-yl}-3,4-dihydroisoquinolin-2(1H)-yl]-6-(4-methylpiperazin-1-yl)pyrimidin-2-amine] |
| 44 | – | CC1Cc2ccc(-c3ccnc(C(=O)N4CC(C#N)C4)c3)cc2CN1c1cc(N2CCN(C)CC2)nc(N)n1 (single isomer, unassigned) [Example 63A, 1-[(4-{2-[2-amino-6-(4-methylpiperazin-1-yl)pyrimidin-4-yl]-3-methyl-1,2,3,4-tetrahydroisoquinolin-7-yl}pyridin-2-yl)carbonyl]azetidine-3-carbonitrile] |
| – | 72 | CC1Cc2ccc(-c3cnn(CC4(C#N)CC4)c3)cc2CN1c1cc(N2CCN(C)CC2)nc(N)n1 (single isomer, unassigned) [Example 97B, 1-[(4-{2-[2-amino-6-(4-methylpiperazin-1-yl)pyrimidin-4-yl]-3-methyl-1,2,3,4-tetrahydroisoquinolin-7-yl}-1H-pyrazol-1-yl)methyl]cyclopropanecarbonitrile] |
| 89 | – | CN1CCN(c2cc(N3CCc4ccc(-c5cnc(N6CCNCC6)nc5)cc4C3)nc(N)n2)CC1 [Example 9, 4-(4-Methylpiperazin-1-yl)-6-[7-(2-piperazin-1-yipyrimidin-5-yl)-3,4-dihydroisoquinolin-2(1H)-yl]pyrimidin-2-amine] |
| 176 | – | CC1Cc2ccc(-c3ccc(C(=O)N4CCC4)nc3)cc2CN1c1cc(N2CCN(C)CC2)nc(N)n1 (single isomer, unassigned) [Example 53B, 4-[7-[6-(azetidin-1-ylcarbonyl)pyridin-3-yl]-3-methyl-3,4-dihydroisoquinolin-2(1H)-yl]-6-(4-methylpiperazin-1-yl)pyrimidin-2-amine] |
| 30.6 | – | CC1Cc2ccc(C3CCN(S(C)(=O)=O)CC3)cc2CN1c1cc(N2CCN(C)CC2)nc(N)n1 (centres unmarked) [Example 148, 4-[3-Methyl-7-[1-(methylsulfonyl)piperidin-4-yl]-3,4-dihydroisoquinolin-2(1H)-yl]-6-(4-methylpiperazin-1-yl)pyrimidin-2-amine] |
| 110 | – | CN1CCN(c2cc(N3CCc4ccc(-c5cnn(C6(CC#N)CCCC6)c5)cc4C3)nc(N)n2)CC1 [Example 11, [1-(4-{2-[2-Amino-6-(4-methylpiperazin-1-yl)pyrimidin-4-yl]-1,2,3,4-tetrahydroisoquinolin-7-yl}-1,1-pyrazol-1-yl)cyclopentyl]acetonitrile] |
| 148 | – | CC1Cc2ccc(-c3cncc(C(=O)N(C)C)c3)cc2CN1c1cc(N2CCN(C)CC2)nc(N)n1 (single isomer, unassigned) [Example 74, 5-{2-[2-Amino-6-(4-methylpiperazin-1-yl)pyrimidin-4-yl]-3-methyl-1,2,3,4-tetrahydroisoquinolin-7-yl}-N,N-dimethylnicotinamide] |
| 144 | – | CC1Cc2ccc(-c3ccc(C(=O)N4CCN(C)CC4)nc3)cc2CN1c1cc(N2CCN(C)CC2)nc(N)n1 (centres unmarked) [Example 58, 4-[3-Methyl-7-{6-[(4-methylpiperazin-1-yl)carbonyl]pyridin-3-yl}-3,4-dihydroisoquinolin-2 (1H)-yl]-6-(4-methylpiperazin-1-yl)pyrimidin-2-amine] |
| 352 | – | CC1Cc2ccc(-c3cnn(CCC#N)c3)cc2CN1c1cc(N2CCN(C)CC2)nc(N)n1 (single isomer, unassigned) [Example 96B, 3-(4-{2-[2-Amino-6-(4-methylpiperazin-1-yl)pyrimidin-4-yl]-3-methyl-1,2,3,4-tetrahydroisoquinolin-7-yl}-1H-pyrazol-1-yl)propanenitrile] |
| 38 | – | CC1Cc2ccc(-c3ncc(C(=O)N(C)C)s3)cc2CN1c1cc(N2CCN(C)CC2)nc(N)n1 (centres unmarked) [Example 134, 2-{2-[2-Amino-6-(4-methylpiperazin-1-yl)pyrimidin-4-yl]-3-methyl-1,2,3,4-tetrahydroisoquinolin-7-yl}-N,N-dimethyl-1,3-thiazole-5-carboxamide] |
